Source: patent publication US12006332B2, “Aminopyrimidine derivatives as phosphatidylinositol phosphate kinase inhibitors” (HiberCell, Inc., priority 2019, dated 2024)

How the values were obtained:
PIP4K2 B = target: T1, PIP4K2 B (Homo sapiens, UniProt P78356); test: Kinase Assay-PIP4K2 B (Transcreener FI); assay type: biochemical
T1 construct: made in house; host or cells: E. coli
T1 sequence (P78356 1-416): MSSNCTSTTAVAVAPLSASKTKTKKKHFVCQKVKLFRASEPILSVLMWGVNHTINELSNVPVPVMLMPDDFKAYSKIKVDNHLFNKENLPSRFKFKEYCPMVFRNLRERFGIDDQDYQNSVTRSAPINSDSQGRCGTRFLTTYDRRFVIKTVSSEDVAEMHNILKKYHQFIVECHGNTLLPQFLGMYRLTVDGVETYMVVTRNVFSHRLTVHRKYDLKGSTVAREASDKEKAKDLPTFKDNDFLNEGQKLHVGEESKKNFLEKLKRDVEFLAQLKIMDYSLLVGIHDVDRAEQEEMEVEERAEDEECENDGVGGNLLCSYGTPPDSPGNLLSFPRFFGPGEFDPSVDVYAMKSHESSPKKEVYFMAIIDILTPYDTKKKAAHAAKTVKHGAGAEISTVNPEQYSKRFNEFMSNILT
Source text: GST tagged PIP4KtypeIIA and B enzymes were overexpressed in E. Coli and purified to >80% homogeneity. Phosphatidyl inositol-5-phosphate (PI5P, Cat. #850152, Avanti Polar Lipids Inc.) was used as the lipid substrate and phosphatidyl ethanolamine (DOPE 18:1, Cat. #850725, Avanti Polar Lipids Inc.) was used as the carrier lipid for assays. Ultrapure ATP and GTP was purchased from Bellbrooke Labs. ADP Glo reagents were obtained from Promega. Transcreener FI reagent was obtained from Bellbrooke labs.
• 1. HEPES buffer mix: 200 mM HEPES pH 7.4, 50 mM MgCl2, 0.05% v/v triton X 100 • 2. HNE buffer: 20 mM HEPES, pH 7.4, 100 mM NaCl, 0.5 mM EGTA • 3. H:E buffer: 30 mM HEPES, pH 7.4, 1 mM EGTA
GST-tagged PIP4KtypeIIB (3.4 μl, 2.77 mg/mL) was diluted to 5 mL using HNE buffer to yield 5× enzyme stock (25 nM)
Lipid Preparation: In a 10 mL pyrex glass vial, […] were suspended in 2.5 mL of HEPES buffer mix and 2.5 mL of H:E buffer. The contents were mixed and sonicated for 3 min to yield a translucent lipid stock.
Compound Preparation: Compounds were stored as 5 mM stocks in neat DMSO as room temperature in glass vials. 5 mM stocks were diluted to 2 mM and then serially diluted (3×) in neat DMSO in 96 well polypropylene plates. From the serially diluted stocks, 3 μL was delivered into 250 μL of 25% DMSO (in water) to generate 5× compound stocks. Typically, the highest compound conc. was 24 μM.
The assay volume was kept at 25 μL. To each well of the reaction plate, 10 μL of lipid stock (1:1 ratio PI5P:DOPE) was delivered. This was followed by the addition of 5 μL of compound in 25% DMSO. Then, to each well, 5 μL of 25 nM (5×) typeIIB enzyme was delivered. The contents were mixed well and incubated for 1 h at 27° C. After 1 h, reaction was initiated by adding 5 μL of 500 μM GTP and the contents were mixed well with a multi-channel pipetteman. The final concentration of the reagents are as follows: 50 mM HEPES, pH 7.3, 10 mM MgCl2, 20 mM NaCl, 0.01% v/v triton-X100, 5% DMSO, 100 μM GTP, 80 μM (2 μg) PI5P, 2 μg DOPE, and 5 nM PIP4KIIB Typically, the highest conc. of compounds was 4.8 μM and the lowest conc. was 0.
After 2 h, the reaction was quenched by adding 25 μL of transcreener FI reagent. The contents were incubated at rt for 1 h and the Fluorescence (Ex: 584 Em: 623) was read using Molecular Devices Paradigm plate reader. […] The blanks were averaged and subtracted from all other wells. Using a calibration curve, RFU was converted to μM GDP (product). IC50 was calculated by plotting the residual activity (expressed as % No inhibitor control) vs. log [Inh. conc.].

MOLM-16 = MOLM-16 EC50 assay; assay type: cell-based; details: MOLM16
PIP4K2A = target: T2, PIP4K2A (Homo sapiens, UniProt P48426); test: Kinase Assay-PIP4K2 A (ADP-Glo); assay type: biochemical
T2 construct: made in house; host or cells: E. coli
T2 sequence (P48426 1-406): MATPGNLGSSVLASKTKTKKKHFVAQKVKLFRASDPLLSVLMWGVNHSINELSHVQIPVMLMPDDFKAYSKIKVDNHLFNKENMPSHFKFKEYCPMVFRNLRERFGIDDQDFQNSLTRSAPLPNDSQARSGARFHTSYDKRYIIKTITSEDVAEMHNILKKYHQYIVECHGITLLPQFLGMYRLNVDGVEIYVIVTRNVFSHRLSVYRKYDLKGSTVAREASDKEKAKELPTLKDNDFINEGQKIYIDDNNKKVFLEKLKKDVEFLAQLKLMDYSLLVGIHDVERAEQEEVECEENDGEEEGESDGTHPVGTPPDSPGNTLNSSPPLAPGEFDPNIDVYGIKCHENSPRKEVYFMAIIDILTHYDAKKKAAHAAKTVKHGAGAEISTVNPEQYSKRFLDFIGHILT
Description: Dilution series of the compounds were prepared in DMSO at 100 times the final assay concentration (n1=n0/3 in 10 points). The compounds were further diluted to three times the assay concentration in assay buffer (20 mM MOPS pH 7.2, 25 mM magnesium chloride, 0.005% Tween 20). 6 μL of the diluted compounds were added to a 384 well assay plate followed by 9 μL of a mix consisting of 4 nM PIP4K2A (full length protein, SignalChem) and 100 μM PI(5)P diC8 (Tebu-Bio). Enzyme and compounds were pre-incubated at room temperature for 15 minutes.
Then 3 μL of a solution containing 60 μM ATP (Promega) in assay buffer was added to the wells containing compound and enzyme and mixing was performed by pipetting several times. The reaction was incubated at room temperature for 1 h. Then 18 μL of ADP-Glo™ Reagent (Promega) was added to stop the kinase reaction and deplete the unconsumed ATP, mixing was performed by pipetting several times. The plate was incubated at room temperature for 40 minutes before addition of 36 μL of Kinase Detection Reagent (Promega) to convert ADP to ATP and introduce luciferase and luciferin to detect ATP. The reaction was incubated at room temperature for 40 minutes before the luminescence was measured in a in a Victor 3V 1420 multilabel counter (Perkin Elmer).
Percent inhibition of the compounds as compared to dimethyl sulfoxide treated control samples was calculated. Compound concentration versus percent inhibition were fitted to generate IC50 values. […]

## O=C(O)CNc1nc(Nc2cnc3c(c2)N2C(=O)CC[C@H]2CO3)ncc1-c1ccc(N2CCCC2=O)cc1 [Compound 1, 2-[(2-{[(6S)-3-oxo-8-oxa-2,10-diazatricyclo[7.4.0.0^2,6]trideca-1(9),10,12-trien-12-yl]amino}-5-[4-(2-oxopyrrolidin-1-yl)phenyl]pyrimidin-4-yl)amino]acetic acid]
PIP4K2 B
  IC50: ≤ 1 nM
MOLM-16
  EC50: > 1000 nM
PIP4K2A
  IC50: ≤ 1 nM

## CN(c1nc(Nc2cnc3c(c2)N2C(=O)CC[C@H]2CO3)ncc1-c1ccc(N2CCCC2=O)cc1)[C@H]1CCOC1 [Compound 2, (6S)-12-[(4-{methyl[(3S)-oxolan-3-yl]amino}-5-[4-(2-oxopyrrolidin-1-yl)phenyl]pyrimidin-2-yl)amino]-8-oxa-2,10-diazatricyclo[7.4.0.0^2,6]trideca-1(13),9,11-trien-3-one]
PIP4K2 B
  IC50: 1 to 10 nM
MOLM-16
  EC50: > 1000 nM
PIP4K2A
  IC50: ≤ 1 nM

## CN(c1nc(Nc2cnc3c(c2)N2C(=O)CC[C@H]2CO3)ncc1-c1ccc(N2CCCC2=O)cc1)C1CCOC1 (stereo partly drawn) [Compound 3, (6S)-12-({4-[methyl(oxolan-3-yl)amino]-5-[4-(2-oxopyrrolidin-1-yl)phenyl]pyrimidin-2-yl}amino)-8-oxa-2,10-diazatricyclo[7.4.0.0^2,6]trideca-1(13),9,11-trien-3-one]
PIP4K2 B
  IC50: 1 to 10 nM
MOLM-16
  EC50: > 1000 nM
PIP4K2A
  IC50: ≤ 1 nM

## CN(c1nc(Nc2cnc3c(c2)N2C(=O)CC[C@H]2CO3)ncc1-c1ccc(N2CCCC2=O)cc1)[C@H]1C[C@H](O)C1 [Compound 4, (6S)-12-[(4-{methyl[(1r,3r)-3-hydroxycyclobutyl]amino}-5-[4-(2-oxopyrrolidin-1-yl)phenyl]pyrimidin-2-yl)amino]-8-oxa-2,10-diazatricyclo[7.4.0.0^2,6]trideca-1(13),9,11-trien-3-one]
PIP4K2 B
  IC50: 1 to 10 nM
MOLM-16
  EC50: > 1000 nM
PIP4K2A
  IC50: 1 to 10 nM

## COc1nc(Nc2cnc3c(c2)N(C(=O)OCCN(C)C)CCO3)ncc1-c1ccc(N2CCCC2=O)cc1 [Compound 5, 2-(dimethylamino)ethyl 7-({4-methoxy-5-[4-(2-oxopyrrolidin-1-yl)phenyl]pyrimidin-2-yl}amino)-1H,2H,3H-pyrido[2,3-b][1,4]oxazine-1-carboxylate]
PIP4K2 B
  IC50: 1 to 10 nM
MOLM-16
  EC50: 10 to 100 nM
PIP4K2A
  IC50: 1 to 10 nM

## O=C1CCCN1c1ccc(-c2cnc(Nc3cnc4c(c3)N3C(=O)CC[C@H]3CO4)nc2OCCN2CCOCC2)cc1 [Compound 6, (6S)-12-({4-[2-(morpholin-4-yl)ethoxy]-5-[4-(2-oxopyrrolidin-1-yl)phenyl]pyrimidin-2-yl}amino)-8-oxa-2,10-diazatricyclo[7.4.0.0^2,6]trideca-1(9),10,12-trien-3-one]
PIP4K2 B
  IC50: 1 to 10 nM
MOLM-16
  EC50: 10 to 100 nM
PIP4K2A
  IC50: 1 to 10 nM

## CN(c1nc(Nc2cnc3c(c2)N2C(=O)CC[C@H]2CO3)ncc1-c1ccc(N2CCCC2=O)cc1)[C@@H]1CCOC1 [Compound 7, (6S)-12-[(4-{methyl[(3R)-oxolan-3-yl]amino}-5-[4-(2-oxopyrrolidin-1-yl)phenyl]pyrimidin-2-yl)amino]-8-oxa-2,10-diazatricyclo[7.4.0.0^2,6]trideca-1(13),9,11-trien-3-one]
PIP4K2 B
  IC50: 1 to 10 nM
MOLM-16
  EC50: > 1000 nM
PIP4K2A
  IC50: 1 to 10 nM

## COc1nc(Nc2cncc(N3CCC(N(C)C)CC3)c2)ncc1-c1ccc(-c2nnccc2C)cc1 [Compound 17, N-{5-[4-(dimethylamino)piperidin-1-yl]pyridin-3-yl}-4-methoxy-5-[4-(4-methylpyridazin-3-yl)phenyl]pyrimidin-2-amine]
PIP4K2 B
  IC50: 10 to 100 nM
PIP4K2A
  IC50: 10 to 100 nM

## CCN(CC)CCOC(=O)N1CCOc2ncc(Nc3ncc(-c4ccc(N5C(=O)CC[C@H]5C)cc4)cn3)cc21 [Compound 22, 2-(diethylamino)ethyl 7-[(5-{4-[(2R)-2-methyl-5-oxopyrrolidin-1-yl]phenyl}pyrimidin-2-yl)amino]-1H,2H,3H-pyrido[2,3-b][1,4]oxazine-1-carboxylate]
PIP4K2 B
  IC50: 10 to 100 nM
PIP4K2A
  IC50: 10 to 100 nM

## CCN(CC)CCOC(=O)N1CCOc2ncc(Nc3ncc(-c4ccc(N5CCCC5=O)cc4)cn3)cc21 [Compound 23, 2-(diethylamino)ethyl 7-({5-[4-(2-oxopyrrolidin-1-yl)phenyl]pyrimidin-2-yl}amino)-1H,2H,3H-pyrido[2,3-b][1,4]oxazine-1-carboxylate]
PIP4K2 B
  IC50: 10 to 100 nM
PIP4K2A
  IC50: 10 to 100 nM

## CCN(CC)CCN(C)C(=O)N1CCOc2ncc(Nc3ncc(-c4ccc(N5C(=O)CC[C@H]5C)cc4)c(OC)n3)cc21 [Compound 24, N-[2-(diethylamino)ethyl]-7-[(4-methoxy-5-{4-[(2R)-2-methyl-5-oxopyrrolidin-1-yl]phenyl}pyrimidin-2-yl)amino]-N-methyl-1H,2H,3H-pyrido[2,3-b][1,4]oxazine-1-carboxamide]
PIP4K2 B
  IC50: 10 to 100 nM
PIP4K2A
  IC50: 100 to 1000 nM

## CCN(CC)CCN(C)C(=O)N1CCOc2ncc(Nc3ncc(-c4ccc(N5C(=O)CC[C@H]5C)cc4)cn3)cc21 [Compound 25, N-[2-(diethylamino)ethyl]-N-methyl-7-[(5-{4-[(2R)-2-methyl-5-oxopyrrolidin-1-yl]phenyl}pyrimidin-2-yl)amino]-1H,2H,3H-pyrido[2,3-b][1,4]oxazine-1-carboxamide]
PIP4K2 B
  IC50: 100 to 1000 nM
PIP4K2A
  IC50: 100 to 1000 nM

## CP(C)(=O)c1ccc(-c2ccc(Nc3cnc4c(c3)N3C(=O)CC[C@H]3CO4)nc2)cc1 [Compound 27, (6S)-12-({5-[4-(dimethylphosphoryl)phenyl]pyridin-2-yl}amino)-8-oxa-2,10-diazatricyclo[7.4.0.0^2,6]trideca-1(9),10,12-trien-3-one]
PIP4K2 B
  IC50: > 1000 nM
PIP4K2A
  IC50: > 1000 nM
